From patent US9771372B2, “Compounds useful as S100-inhibitors” (Active Biotech AB, priority 2014, dated 2017)

What follows are compounds tested against T1, interaction between biotinylated human S100A9 and human RAGE-Fc (Homo sapiens, UniProt P06702) (assay: AlphaScreen inhibition assay, Biot-hS100A9:hRAGE-Fc (S100A9-RAGE inhibition assay)). Conditions: biot-hS100A9 and rhRAGE-Fc, Ca2+ and Zn2+ in buffer.
T1 construct: made in house; host or cells: E. coli BL21(DE3)/pET1120 (pLR757)
T1 sequence (P06702 1-114): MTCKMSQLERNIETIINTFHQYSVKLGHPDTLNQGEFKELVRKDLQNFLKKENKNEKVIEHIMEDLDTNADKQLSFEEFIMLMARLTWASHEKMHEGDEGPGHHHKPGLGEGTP
Type: binding
Description: FIG. 1 is a schematic representation of an assay of the inhibition of the interaction between biotinylated human S100A9 and human RAGE-Fc using a small molecule S100A9 binder.
Inhibition Assay, Biot-hS100A9:hRAGE-Fc
The AlphaScreen (Amplified Luminescent Proximity Homogeneous Assay) contains two types of beads, Alpha Donor beads and Acceptor beads (PerkinElmer). Upon laser excitation at 680 nm a photosensitizer in the Donor bead converts ambient oxygen to a more excited singlet state. The singlet oxygen molecule diffuses (maximum 200 nm) to react with a thioxene derivative in the Acceptor bead and generates a chemiluminescence reaction. Fluorophores in the Acceptor bead subsequently emit light at 520-620 nm which can be detected in the EnVision® Multilabel plate Reader (PerkinElmer). The beads are light sensitive and all work with the beads is performed under subdued light conditions or using green filters on light sources (Roscolux Chroma Green #389, Rosco).
In the AlphaScreen Inhibition Assay described here, protein A (Staphylococcus aureus) conjugated Acceptor beads are used together with streptavidin coated Donor beads (Perkin Elmer 6760617M). The Acceptor beads are pre-incubated with Fc-tagged recombinant human RAGE (rhRAGE-Fc) allowing binding of the rhRAGE-Fc to protein A on the beads. Biotinylated human S100A9 (biot-hS100A9) is pre-incubated with the low molecular test compounds. The pre-mixes are then added to the wells of a micro-plate and incubated allowing interaction between biot-hS100A9 and rhRAGE-Fc. Subsequent addition of streptavidin coated Donor beads causes binding of the streptavidin to the biotinylated hS100A9. After an additional incubation the signal is measured.
Without inhibitory compounds, the interaction of biot-hS100A9 to rhRAGE-Fc will bring the Acceptor and Donor beads in close proximity thus generating a high signal. With an inhibitor present the complex will not form resulting in a decreased signal.
The AlphaScreen assay method is used for screening of the inhibitory effect of different compound samples at fixed concentrations or for IC50 determination by varying the compound concentrations. Samples of test compounds and references are prepared from solutions in DMSO. Relevant reference inhibitors and DMSO are used as controls for defined inhibition and non-inhibition, respectively in the assay. The percent inhibition in assay for test compounds and references are calculated by comparing their obtained assay signals with the signal values for the control with only DMSO (no compound).
Assay concentration of biotinylated hS100A9 and rhRAGE-Fc are batch dependent, and are determined and defined by separate cross-titration experiments using this AlphaScreen inhibition method to verify the optimal setup regarding signal strength and achievement of a defined inhibition with relevant reference compounds. The Final assay concentrations of Acceptor and Donor beads are 20 μg/mL.
Assay buffer is prepared by adding CaCl2 and ZnCl2 to HBS-P and is used freshly prepared in the experiment.
Biotin-hS100A9 solution for the experiment is prepared by dilution of appropriate amount of stock solution biot-hS100A9 in assay buffer (with CaCl2 and ZnCl2) and incubation in room temperature for 30 minutes.
rhRAGE-Fc solution for the experiment is prepared by dilution appropriate amount of rhRAGE-Fc stock in assay buffer.
Protein A Acceptor beads are diluted in assay buffer and are added to an equal volume of the prepared diluted rhRAGE-Fc solution. The beads are light sensitive. The vial is covered with aluminum foil and incubated at room temperature in the dark until biot-hS100A9+compound incubation is finished (see below).
Streptavidin-coated Donor beads are diluted in assay buffer. The beads are very light sensitive. The vial is covered with aluminum foil and incubated at room temperature in the dark until use (see below).
Samples of test compounds, appropriate references and DMSO control are diluted in assay buffer. […]

Q: For CSc1ccc(-c2cccc3c2nc2n3C(NC(=O)CCC3CCCC3)(C(F)(F)F)C(=O)N2)cc1 (centres unmarked) [Example 232, 3-cyclopentyl-N-{9-[4-(methylsulfanyl)phenyl]-4-oxo-3-(trifluoromethyl)-2,5,7-triazatricyclo[6.4.0.0^2,6]dodeca-1(12),6,8,10-tetraen-3-yl}propanamide], which IC50 is on record?
A: Its IC50 is 0.54 µM.

Q: For Cc1cc2nc3n(c2cc1C)C(NC(=O)CCC1CCCC1)(C(F)(F)F)C(=O)N3 (single isomer, unassigned) [Example 218b, 3-cyclopentyl-N-[10,11-dimethyl-4-oxo-3-(trifluoromethyl)-2,5,7-triazatricyclo[6.4.0.0^2,6]dodeca-1(12),6,8,10-tetraen-3-yl]propanamide], which IC50 is on record?
A: Its IC50 is 0.73 µM.

Q: O=C(NC1(C(F)(F)F)C(=O)Nc2nc3cc(Cl)c(Cl)cc3n21)c1cccc(CO)n1 (centres unmarked) [Example 97, N-[10,11-dichloro-4-oxo-3-(trifluoromethyl)-2,5,7-triazatricyclo[6.4.0.0^2,6]dodeca-1(8),6,9,11-tetraen-3-yl]-6-(hydroxymethyl)pyridine-2-carboxamide] was tested. Which IC50 did it give?
A: The IC50 was 0.19 µM.

Q: CN(C)CCNc1cccc(C(=O)NC2(C(F)(F)F)C(=O)Nc3nc4cc(Cl)c(Cl)cc4n32)n1 (centres unmarked) [Example 93, N-[10,11-dichloro-4-oxo-3-(trifluoromethyl)-2,5,7-triazatricyclo[6.4.0.0^2,6]dodeca-1(8),6,9,11-tetraen-3-yl]-6-{[2-(dimethylamino)ethyl]amino}pyridine-2-carboxamide] was tested. Which IC50 did it give?
A: The IC50 was 0.6 µM.

Q: For COC(=O)c1cccc(C(=O)NC2(C(F)(F)F)C(=O)Nc3nc4cc(Cl)c(Cl)cc4n32)n1 (centres unmarked) [Example 95, methyl 6-{[10,11-dichloro-4-oxo-3-(trifluoromethyl)-2,5,7-triazatricyclo[6.4.0.0^2,6]dodeca-1(8),6,9,11-tetraen-3-yl]carbamoyl}pyridine-2-carboxylate], which IC50 is on record?
A: Its IC50 is 1.08 µM.

Q: For O=C(CCC1CCCC1)NC1(C(F)(F)F)C(=O)Nc2nc3c(Br)cc(Cl)cc3n21 (centres unmarked) [Example 181, N-[9-bromo-11-chloro-4-oxo-3-(trifluoromethyl)-2,5,7-triazatricyclo[6.4.0.0^2,6]dodeca-1(12),6,8,10-tetraen-3-yl]-3-cyclopentylpropanamide], which IC50 is on record?
A: The IC50 was 1.45 µM.

Q: How did the IC50 turn out when O=C(CCC1CCCC1)NC1(C(F)(F)F)C(=O)Nc2nc3c(-c4ccccc4)cccc3n21 (centres unmarked) [Example 195, 3-cyclopentyl-N-[4-oxo-9-phenyl-3-(trifluoromethyl)-2,5,7-triazatricyclo[6.4.0.0^2,6]dodeca-1(12),6,8,10-tetraen-3-yl]propanamide] was run?
A: Its IC50 is 1.27 µM.

Q: Which IC50 does the source give for CO[C@H](C(=O)NC1(C(F)(F)F)C(=O)Nc2nc3cc(C)c(C)cc3n21)c1ccccc1 (single isomer, unassigned) [Example 147b] here?
A: Its IC50 is 3.44 µM.

Q: How did the IC50 turn out when Cc1cc2nc3n(c2cc1C)C(NC(=O)CCC1CCCC1)(C(F)(F)F)C(=O)N3 (single isomer, unassigned) [Example 218a, 3-cyclopentyl-N-[10,11-dimethyl-4-oxo-3-(trifluoromethyl)-2,5,7-triazatricyclo[6.4.0.0^2,6]dodeca-1(12),6,8,10-tetraen-3-yl]propanamide] was run?
A: The IC50 was 3.13 µM.

Q: For COc1cccc(-c2cccc3c2nc2n3C(NC(=O)CCC3CCCC3)(C(F)(F)F)C(=O)N2)c1 (centres unmarked) [Example 189, 3-cyclopentyl-N-[9-(3-methoxyphenyl)-4-oxo-3-(trifluoromethyl)-2,5,7-triazatricyclo[6.4.0.0^2,6]dodeca-1(12),6,8,10-tetraen-3-yl]propanamide], which IC50 is on record?
A: The IC50 was 0.95 µM.

Q: With CC(=O)c1cccc2c1nc1n2C(NC(=O)CCC2CCCC2)(C(F)(F)F)C(=O)N1 (single isomer, unassigned) [Example 224b, N-[9-acetyl-4-oxo-3-(trifluoromethyl)-2,5,7-triazatricyclo[6.4.0.0^2,6]dodeca-1(12),6,8,10-tetraen-3-yl]-3-cyclopentylpropanamide] as the compound, how does the IC50 read?
A: The IC50 was 10.1 µM.
